Measurements: patent US20250388574A1, “HETEROCYCLIC COMPOUNDS AS TRIGGERING RECEPTOR EXPRESSED ON MYELOID CELLS 2 AGONISTS AND METHODS OF USE” (AMGEN INC., priority 2020, published 2025)

Biological target: hTREM2 (Homo sapiens, UniProt Q9NZC2)
Test: Phospho-Syk AlphaScreen/AlphaLISA assay in TREM2 and DAP12 overexpressing HEK293 cells (Example A1)
Format: cell-based
Set-up: expressed in transfected cells
Conditions: HEK293 cells; for EC50: read-out: hTREM2 EC50
Summary of the method: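 Single-cell-cloned HEK293 stably overexpressing TREM2 and DAP12, plated 20,000 cells/well for 20 h, then exposed to compounds (1% DMSO) 45 min at room temperature. Lysates probed for phospho-Syk by AlphaLISA sandwich (anti-pSyk, biotinylated anti-Syk); signal normalized to percent of control (100 nM anti-TREM2 antibody vs isotype) and fitted by 4-parameter logistic.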

Sequence of hTREM2 (Q9NZC2 19-230): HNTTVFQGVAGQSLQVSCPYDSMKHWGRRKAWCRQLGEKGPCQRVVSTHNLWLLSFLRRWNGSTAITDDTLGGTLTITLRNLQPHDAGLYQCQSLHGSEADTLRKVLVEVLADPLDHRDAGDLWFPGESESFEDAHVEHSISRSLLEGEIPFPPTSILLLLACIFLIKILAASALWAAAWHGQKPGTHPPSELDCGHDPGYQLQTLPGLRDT
Sequence of hTREM2 (O43914 22-113 partner): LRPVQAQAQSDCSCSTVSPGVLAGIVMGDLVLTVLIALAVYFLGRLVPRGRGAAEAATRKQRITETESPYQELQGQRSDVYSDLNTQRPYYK

| Emax | EC50 [nM] | SMILES |
| --- | --- | --- |
| +++ (Emax>200 and ≤300) | 500 to 3000 | Cc1cc([C@@H]2C[C@H](c3cc4nc(C)n(C)c(=O)c4c(-c4ccc(Cl)cc4F)n3)CCO2)ccn1 (single isomer, unassigned) [Example 170] |
| +++ (Emax>200 and ≤300) | 50 to 500 | Cc1nc2cc(N3CCO[C@H]([C@H]4CCOC4)C3)nc(-c3ccc(Cl)cc3F)c2c(=O)n1C (single isomer, unassigned) [Example 43] |
| ++++ (Emax>300) | 500 to 3000 | Cc1nc2cc(N3CCO[C@H](c4cnn(C)c4)C3)nc(-c3ncc(Cl)cc3F)c2c(=O)n1C [Example 196, (R)-5-(5-chloro-3-fluoropyridin-2-yl)-2,3-dimethyl-7-(2-(1-methyl-1H-pyrazol-4-yl)morpholino)pyrido[4,3-d]pyrimidin-4(3H)-one] |
| +++ (Emax>200 and ≤300) | 3000 to 100000 | Cc1nc2cc(N3CCO[C@H](c4cccc(Cl)c4)C3)nc(-c3ccc(Cl)cc3F)c2c(=O)n1C [Example 239, (R)-5-(4-chloro-2-fluorophenyl)-7-(2-(3-chlorophenyl)morpholino)-2,3-dimethylpyrido[4,3-d]pyrimidin-4(3H)-one] |
| ++++ (Emax>300) | 50 to 500 | Cc1cc([C@@H]2CN(c3cc4nc(C)n(C)c(=O)c4c(-c4ccc(Cl)cc4F)n3)CCO2)cc(C)n1 (single isomer, unassigned) [Example 76] |
| + (Emax>45 and ≤100) | 500 to 3000 | Cc1nc2cc(N3C[C@@H](C)O[C@H](c4ccsc4)C3)nc(-c3ccc(Cl)cc3F)c2c(=O)n1C (single isomer, unassigned) [Example 74] |
| ++++ (Emax>300) | 500 to 3000 | Cc1nc2cc(N3CCO[C@@H](c4cnn(C)c4)C3)nc(-c3ncc(Cl)cc3F)c2c(=O)n1C [Example 216, (S)-5-(5-chloro-3-fluoropyridin-2-yl)-2,3-dimethyl-7-(2-(1-methyl-1H-pyrazol-4-yl)morpholino)pyrido[4,3-d]pyrimidin-4(3H)-one] |
| +++ (Emax>200 and ≤300) | 500 to 3000 | Cc1nc2cc(N3CCO[C@@H](c4cnn(C)c4)C3)nc(-c3cc(F)ccc3F)c2c(=O)n1C [Example 228, (S)-5-(2,5-difluorophenyl)-2,3-dimethyl-7-(2-(1-methyl-1H-pyrazol-4-yl)morpholino)pyrido[4,3-d]pyrimidin-4(3H)-one] |
| +++ (Emax>200 and ≤300) | 50 to 500 | Cc1cc([C@@H]2CN(c3cc4nc(C)n(C)c(=O)c4c(-c4ccc(Cl)cc4F)n3)CCO2)ccn1 [Example 62, 5-(4-chloro-2-fluorophenyl)-2,3-dimethyl-7-((2R)-2-(2-methyl-4-pyridinyl)-4-morpholinyl)pyrido[4,3-d]pyrimidin-4(3H)-one] |
| +++ (Emax>200 and ≤300) | < 50 | Cc1cc([C@H]2CN(c3cc4nc(C)n(C)c(=O)c4c(-c4ccc(Cl)cc4F)n3)CCO2)ccn1 [Example 61, 5-(4-chloro-2-fluorophenyl)-2,3-dimethyl-7-((2S)-2-(2-methyl-4-pyridinyl)-4-morpholinyl)pyrido[4,3-d]pyrimidin-4(3H)-one] |
| ++++ (Emax>300) | 50 to 500 | Cc1nc2cc(N3CCO[C@H](c4noc(C5CC5)n4)C3)nc(-c3ccc(Cl)cc3F)c2c(=O)n1C [Example 201, (S)-5-(4-chloro-2-fluorophenyl)-7-(2-(5-cyclopropyl-1,2,4-oxadiazol-3-yl)morpholino)-2,3-dimethylpyrido[4,3-d]pyrimidin-4(3H)-one] |
| +++ (Emax>200 and ≤300) | < 50 | Cc1nc2cc(N3CCOC(c4ccnc(C(F)(F)F)c4)C3)nc(-c3ccc(Cl)cc3F)c2c(=O)n1C (stereo not shown) [Example 94, 5-(4-chloro-2-fluorophenyl)-2,3-dimethyl-7-(2-(2-(trifluoromethyl)-4-pyridinyl)-4-morpholinyl)pyrido[4,3-d]pyrimidin-4(3H)-one] |
| ++++ (Emax>300) | 500 to 3000 | Cc1nc2cc(N3CCO[C@@H](c4noc(C5CC5)n4)C3)nc(-c3ccc(Cl)cc3F)c2c(=O)n1C (single isomer, unassigned) [Example 84] |
| ++++ (Emax>300) | 50 to 500 | CCc1nnc(C2CN(c3cc4nc(C)n(C)c(=O)c4c(-c4ccc(Cl)cc4F)n3)CCO2)o1 (stereo not shown) [Example 70, 5-(4-chloro-2-fluorophenyl)-7-(2-(5-ethyl-1,3,4-oxadiazol-2-yl)-4-morpholinyl)-2,3-dimethylpyrido[4,3-d]pyrimidin-4(3H)-one] |
| ++++ (Emax>300) | 3000 to 100000 | Cc1nc2cc(N3CCO[C@H](c4ccsc4)C3)nc(-c3ccc(Cl)cc3F)c2c(=O)n1C [Example 240, (R)-5-(4-chloro-2-fluorophenyl)-2,3-dimethyl-7-(2-(thiophen-3-yl)morpholino)pyrido[4,3-d]pyrimidin-4(3H)-one] |
| +++ (Emax>200 and ≤300) | 3000 to 100000 | Cc1nc([C@H]2CN(c3cc4nc(C)n(C)c(=O)c4c(-c4ccc(Cl)cc4F)n3)CCO2)no1 (single isomer, unassigned) [Example 56] |
| ++++ (Emax>300) | 500 to 3000 | Cc1nc2cc(N3CCO[C@@H](C4CC4)C3)nc(-c3ccc(Cl)cc3F)c2c(=O)n1C [Example 188, (S)-5-(4-chloro-2-fluorophenyl)-7-(2-cyclopropylmorpholino)-2,3-dimethylpyrido[4,3-d]pyrimidin-4(3H)-one] |
| +++ (Emax>200 and ≤300) | 500 to 3000 | Cc1nc2cc(N3CCO[C@@H]([C@@H]4CCO4)C3)nc(-c3ccc(Cl)cc3F)c2c(=O)n1C (single isomer, unassigned) [Example 39] |
| +++ (Emax>200 and ≤300) | 50 to 500 | Cc1nn(C)cc1[C@H]1CN(c2cc3nc(C)n(C)c(=O)c3c(-c3ccc(Cl)cc3F)n2)CCO1 [Example 263, (S)-5-(4-chloro-2-fluorophenyl)-7-(2-(1,3-dimethyl-1H-pyrazol-4-yl)morpholino)-2,3-dimethylpyrido[4,3-d]pyrimidin-4(3H)-one] |
| +++ (Emax>200 and ≤300) | 500 to 3000 | Cc1nc2cc(N3C[C@@H](c4cnn(C)c4)O[C@@H](C)C3)nc(-c3ccc(Cl)cc3F)c2c(=O)n1C (single isomer, unassigned) [Example 29] |
| +++ (Emax>200 and ≤300) | 500 to 3000 | Cc1c([C@H]2CN(c3cc4nc(C)n(C)c(=O)c4c(-c4ccc(Cl)cc4F)n3)CCO2)cnn1C [Example 262, (S)-5-(4-chloro-2-fluorophenyl)-7-(2-(1,5-dimethyl-1H-pyrazol-4-yl)morpholino)-2,3-dimethylpyrido[4,3-d]pyrimidin-4(3H)-one] |
| ++++ (Emax>300) | < 50 | Cc1nc2cc(N3CCO[C@@H](c4cnn(C)c4)C3)nc(-c3ccc(Cl)cc3F)c2c(=O)n1CC(F)(F)F [Example 19, 5-(4-chloro-2-fluorophenyl)-2-methyl-7-((2S)-2-(1-methyl-1H-pyrazol-4-yl)-4-morpholinyl)-3-(2,2,2-trifluoroethyl)pyrido[4,3-d]pyrimidin-4(3H)-one] |
| +++ (Emax>200 and ≤300) | 500 to 3000 | CCCn1c(C)nc2cc(N3CCO[C@H](C(F)F)C3)nc(-c3ccc(Cl)cc3F)c2c1=O [Example 183, (S)-5-(4-chloro-2-fluorophenyl)-7-(2-(difluoromethyl)morpholino)-2-methyl-3-propylpyrido[4,3-d]pyrimidin-4(3H)-one] |
